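Five concentrations, 48 hours, 96-well plates. TGI is the concentration that stops growth completely.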
What was measured:
Assay in all cases: NCI-60 cell line screen, 48 h
SK-MEL-28 melanoma = tested on: SK-MEL-28 melanoma
786-0 renal = tested on: 786-0 renal
UACC-62 melanoma = tested on: UACC-62 melanoma
HCT-116 colon = tested on: HCT-116 colon
U251 CNS = tested on: U251 CNS
IGROV1 ovarian = tested on: IGROV1 ovarian
M19-MEL melanoma = tested on: M19-MEL melanoma
HCC-2998 colon = tested on: HCC-2998 colon
UO-31 renal = tested on: UO-31 renal
SK-OV-3 ovarian = tested on: SK-OV-3 ovarian
COLO 205 colon = tested on: COLO 205 colon
LXFL 529 NSCLC = tested on: LXFL 529 NSCLC
KM12 colon = tested on: KM12 colon
SN12C renal = tested on: SN12C renal
NCI-H460 lung = tested on: NCI-H460 lung
HL-60(TB) leukemia = tested on: HL-60(TB) leukemia
KM20L2 colon = tested on: KM20L2 colon
OVCAR-3 ovarian = tested on: OVCAR-3 ovarian
CAKI-1 renal = tested on: CAKI-1 renal
LOX IMVI melanoma = tested on: LOX IMVI melanoma
SW-620 colon = tested on: SW-620 colon
DMS 273 small cell lung = tested on: DMS 273 small cell lung
SNB-19 CNS = tested on: SNB-19 CNS
SNB-78 CNS = tested on: SNB-78 CNS
DLD-1 colon = tested on: DLD-1 colon
TK-10 renal = tested on: TK-10 renal
HOP-62 NSCLC = tested on: HOP-62 NSCLC
M14 melanoma = tested on: M14 melanoma
HOP-18 NSCLC = tested on: HOP-18 NSCLC
SF-539 CNS = tested on: SF-539 CNS
A498 renal = tested on: A498 renal
OVCAR-5 ovarian = tested on: OVCAR-5 ovarian
SK-MEL-2 melanoma = tested on: SK-MEL-2 melanoma
EKVX NSCLC = tested on: EKVX NSCLC
SF-268 CNS = tested on: SF-268 CNS
SK-MEL-5 melanoma = tested on: SK-MEL-5 melanoma
ACHN renal = tested on: ACHN renal
HT29 colon = tested on: HT29 colon
MALME-3M melanoma = tested on: MALME-3M melanoma
CCRF-CEM leukemia = tested on: CCRF-CEM leukemia
HOP-92 NSCLC = tested on: HOP-92 NSCLC
OVCAR-8 ovarian = tested on: OVCAR-8 ovarian
K-562 leukemia = tested on: K-562 leukemia
NCI-H226 lung = tested on: NCI-H226 lung
SNB-75 CNS = tested on: SNB-75 CNS
UACC-257 melanoma = tested on: UACC-257 melanoma
OVCAR-4 ovarian = tested on: OVCAR-4 ovarian
RXF 393 renal = tested on: RXF 393 renal
RPMI-8226 leukemia = tested on: RPMI-8226 leukemia
HCT-15 colon = tested on: HCT-15 colon
NCI-H23 lung = tested on: NCI-H23 lung
NCI-H522 lung = tested on: NCI-H522 lung
SF-295 CNS = tested on: SF-295 CNS
A549 NSCLC = tested on: A549 NSCLC
PC-3 prostate = tested on: PC-3 prostate
SR leukemia = tested on: SR leukemia
HS 578T breast = tested on: HS 578T breast
T-47D breast = tested on: T-47D breast
MCF7 breast = tested on: MCF7 breast
NCI/ADR-RES ovarian = tested on: NCI/ADR-RES ovarian
MOLT-4 leukemia = tested on: MOLT-4 leukemia
MDA-N = tested on: MDA-N
MDA-MB-435 = tested on: MDA-MB-435
MDA-MB-231 breast = tested on: MDA-MB-231 breast
BT-549 breast = tested on: BT-549 breast
DU-145 prostate = tested on: DU-145 prostate

Measured: TGI

CN(C)C(=NC#N)N(Cc1ccccc1)Cc1ccccc1
33.7 µM: SW-620 colon
34 µM: NCI-H460 lung
50.9 µM: K-562 leukemia
30.1 µM: HCT-15 colon
81.5 µM: NCI-H522 lung
not listed: PC-3 prostate | SR leukemia | HS 578T breast | T-47D breast | MCF7 breast | NCI/ADR-RES ovarian | MOLT-4 leukemia | MDA-N | MDA-MB-435 | MDA-MB-231 breast | BT-549 breast | DU-145 prostate
> 100 µM: all other assays above

CC(=O)Nc1cc2nc3n(c2cc1C)CCC3OC(C)=O (stereo not given)
not listed: M19-MEL melanoma | LXFL 529 NSCLC | KM20L2 colon | DMS 273 small cell lung | SNB-78 CNS | DLD-1 colon | TK-10 renal | HOP-62 NSCLC | HOP-18 NSCLC | SK-MEL-5 melanoma
> 100 µM: all other assays above
